Legend:
WT human TSPO [1] = molecular target: T1, WT human TSPO (Homo sapiens, UniProt P30536); assay: Competition radioligand binding vs [3H]PK 11195, membranes of transfected HEK-293T cells (WT TSPO); conditions: vs [3H]PK 11195 (10 nM), HEK-293T membranes, mean ± SEM; read-out: Ki WT hTSPO
T1 construct: expressed in transfected cells
Protocol: (§1) Binding affinities (Ki) to wild-type (WT) and A147T human TSPO were assessed using a previously published method. HEK-293T cells were stably transfected with WT and A147T TSPO. Membranes were isolated from each cell line using an Ultra-Turrax hand-held homogeniser. These cells have been previously validated as an in vitro model for low- and high-affinity TSPO binding. […] Non-specific binding was determined using a saturating concentration (1 µM) of non-tritiated PK 11195. This non-specific binding contributed less than 10% of total binding. Reactions were halted by filtering through a 96-well glass-fibre filter plate (Millipore), followed by eight washes with ice-cold 50 mM Tris HCl. Microscint 0 was added to the plate and resultant radioactivity-related photons were collected by a Microbeta 2450 (PerkinElmer). Ki values were fit to a competition binding curve fit on non-specific binding-corrected data using GraphPad Prism 10.0 (GraphPad). Results are presented as mean ± standard error of the mean (SEM) from at least three independent experiments. Binding affinities (Ki) to rat TSPO were measured in duplicate by Eurofins Panlabs Discovery Services (assay #226700) (Supplementary Fig. 12). Single-dose (10 µM) off-target in vitro screening was performed in duplicate by Eurofins Panlabs Discovery Services (Supplementary Table 5).
(§2) In vitro binding affinities (Ki) for human TSPO were initially assessed using a competition radioligand assay against [^3H]PK 11195 in our well-characterised assay using membranes isolated from transfected HEK-293T cells overexpressing either WT or A147T TSPO [32]. This structure-activity relationship study will be reported in a separate publication. […] Data for DPA-713 and DPA-714 are included for comparison.

WT human TSPO [2] = molecular target: T2, WT human TSPO (Homo sapiens, UniProt P30536, T147A); assay: as above; conditions: DPA-813 vs DPA-713; DPA-814 vs DPA-714
T2 construct: expressed in transfected cells
T2 sequence (P30536 whole entry T147A): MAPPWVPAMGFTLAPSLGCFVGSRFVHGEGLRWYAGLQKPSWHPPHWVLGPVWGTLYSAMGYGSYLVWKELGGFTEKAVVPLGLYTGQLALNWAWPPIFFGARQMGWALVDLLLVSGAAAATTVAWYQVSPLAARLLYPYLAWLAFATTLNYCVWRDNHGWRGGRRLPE
Protocol: as §1, §2

A147T human TSPO = molecular target: T3, A147T human TSPO (Homo sapiens, UniProt P30536); assay: Competition radioligand binding vs [3H]PK 11195, membranes of transfected HEK-293T cells (A147T TSPO); conditions: for increase in affinity to A147T TSPO versus parent compound: DPA-813 vs DPA-713, DPA-814 vs DPA-714; for Ki: vs [3H]PK 11195 (10 nM), HEK-293T membranes, mean ± SEM, read-out: Ki A147T hTSPO
T3 construct: expressed in transfected cells
T3 sequence (P30536 whole entry, stated change not applied): as the sequence (P30536 whole entry T147A) above, with A147T counted along it
Protocol: as §1, §2

rat TSPO = molecular target: T4, rat TSPO (Rattus norvegicus, UniProt P16257); assay: Competitive binding to rat TSPO vs [3H]PK 11195 (Eurofins assay #226700, rat heart membranes); conditions: vs [3H]PK 11195, result in words
T4 construct: Heart of male Wistar derived rats weighing 175 ± 25 g are used to prepare peripheral benzodiazepine membrane receptors [TSPO]; tissue Eurofins Panlabs Discovery Services assay #226700; host or cells: rat heart (male Wistar derived)
Protocol: as §1
Supplementary Figure 12 Dose-response curves and binding affinities of DPA-813 and DPA-814 showing competitive binding to rat TSPO vs [^3H]PK 11195. Method from Eurofins: Heart of male Wistar derived rats weighing 175 ± 25 g are used to prepare peripheral benzodiazepine membrane receptors [TSPO] in modified Tris-HCl buffer pH 7.5. A 0.25 mg aliquot is incubated with 0.3 nM [^3H]PK 11195 for 15 minutes at 25 °C. Non-specific binding is estimated in the presence of 100 μM Dipyridamole. Membranes are filtered and washed, the filters are then counted to determine [^3H]PK 11195 specifically bound.

[3] = Lipophilicity (logD at pH 7.4) by gradient HPLC; format: physicochemical; conditions: gradient HPLC retention correlated with standard compounds; pH 7.4, gradient HPLC; read-out: logD7.4
Text: Partition coefficient values (logD) were estimated at pH 7.4 by correlating chromatographic retention properties against the characteristics of a series of standard compounds with known partition coefficient values. The method employed a gradient HPLC based on a previously published method.

[4] = tested on: Central Benzodiazepine Receptor; assay: Off-target screen, 10 µM single dose (Eurofins); set-up: species or system human; conditions: n = 2, inhibition of agonist radioligand binding
Protocol: as §1, with “Results are presented as mean ± standard error of the mean (SEM) from at least three independent experiments.” left out, “Single-dose (10 µM) off-target in vitro screening was performed in duplicate by Eurofins Panlabs Discovery Services (Supplementary Table 5).” left out
(§3) Supplementary Table 5. […] 10 μM single dose (n = 2) screen performed by Eurofins Panlabs Discovery. ^a All targets are human receptors. ^b Inhibition of antagonist radioligand binding. ^c Inhibition of agonist radioligand binding. ^d Enzymatic functional readout.

5-HT2A = molecular target: T5, 5-HT2A (Homo sapiens, UniProt P28223); assay: Off-target screen, 10 µM single dose (Eurofins); conditions: read-out: % Binding Inhibition at 10 μM, 5-HT2A
T5 construct: purchased Eurofins Panlabs Discovery Services
T5 sequence (P28223 whole entry): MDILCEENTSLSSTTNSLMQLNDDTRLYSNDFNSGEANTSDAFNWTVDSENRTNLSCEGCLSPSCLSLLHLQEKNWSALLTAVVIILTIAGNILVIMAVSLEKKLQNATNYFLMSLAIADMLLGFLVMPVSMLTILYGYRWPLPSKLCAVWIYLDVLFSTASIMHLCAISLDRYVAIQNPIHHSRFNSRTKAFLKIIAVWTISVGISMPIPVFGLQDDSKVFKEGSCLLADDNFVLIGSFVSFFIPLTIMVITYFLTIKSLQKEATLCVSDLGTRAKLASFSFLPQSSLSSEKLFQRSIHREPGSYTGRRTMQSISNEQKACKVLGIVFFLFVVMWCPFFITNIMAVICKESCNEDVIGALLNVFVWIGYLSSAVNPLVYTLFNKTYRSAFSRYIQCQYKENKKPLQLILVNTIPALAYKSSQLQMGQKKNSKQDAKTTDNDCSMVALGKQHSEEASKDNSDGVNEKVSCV
Protocol: as §1
(§4) Supplementary Table 5. Off-target binding to common CNS targets. 10 μM single dose (n = 2) screen performed by Eurofins Panlabs Discovery. ^a All targets are human receptors. ^b Inhibition of antagonist radioligand binding. ^c Inhibition of agonist radioligand binding. ^d Enzymatic functional readout.

5-HT2B = molecular target: T6, 5-HT2B (Homo sapiens, UniProt P41595); assay: Off-target screen, 10 µM single dose (Eurofins); conditions: read-out: % Binding Inhibition at 10 μM, 5-HT2B
T6 construct: purchased Eurofins Panlabs Discovery Services
Protocol: as §1, §4

CB1 = molecular target: T7, CB1 (Homo sapiens, UniProt P21554); assay: Off-target screen, 10 µM single dose (Eurofins); conditions: read-out: % Binding Inhibition at 10 μM, CB1
T7 construct: purchased Eurofins Panlabs Discovery Services
T7 sequence (P21554 whole entry): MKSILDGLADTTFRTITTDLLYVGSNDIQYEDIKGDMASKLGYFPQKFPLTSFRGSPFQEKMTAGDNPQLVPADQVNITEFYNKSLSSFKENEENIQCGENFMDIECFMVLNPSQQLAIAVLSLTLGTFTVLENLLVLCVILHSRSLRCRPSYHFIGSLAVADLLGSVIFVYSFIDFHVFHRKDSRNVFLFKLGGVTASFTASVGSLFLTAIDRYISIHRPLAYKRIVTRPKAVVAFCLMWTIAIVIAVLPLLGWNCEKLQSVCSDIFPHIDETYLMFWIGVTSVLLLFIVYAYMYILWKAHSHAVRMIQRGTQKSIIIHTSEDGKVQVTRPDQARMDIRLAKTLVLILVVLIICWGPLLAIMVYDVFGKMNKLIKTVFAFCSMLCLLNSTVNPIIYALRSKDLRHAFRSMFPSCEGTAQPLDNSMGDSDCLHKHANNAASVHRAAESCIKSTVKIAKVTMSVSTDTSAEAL
Protocol: as §1, §4

CB2 = molecular target: T8, CB2 (Homo sapiens, UniProt P34972); assay: Off-target screen, 10 µM single dose (Eurofins); conditions: read-out: % Binding Inhibition at 10 μM, CB2
T8 construct: purchased Eurofins Panlabs Discovery Services
T8 sequence (P34972 whole entry): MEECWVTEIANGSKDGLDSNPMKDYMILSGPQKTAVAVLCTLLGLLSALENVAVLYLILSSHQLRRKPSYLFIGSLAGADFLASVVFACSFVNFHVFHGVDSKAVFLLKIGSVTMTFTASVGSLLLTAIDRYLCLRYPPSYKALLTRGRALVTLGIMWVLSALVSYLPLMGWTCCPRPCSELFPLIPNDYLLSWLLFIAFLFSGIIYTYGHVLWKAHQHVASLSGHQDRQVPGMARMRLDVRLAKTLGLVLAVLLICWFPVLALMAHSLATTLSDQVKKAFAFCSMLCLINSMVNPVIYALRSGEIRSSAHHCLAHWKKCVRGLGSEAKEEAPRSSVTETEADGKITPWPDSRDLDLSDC
Protocol: as §1, §4

D1 = molecular target: T9, D1 (Homo sapiens, UniProt P21728); assay: Off-target screen, 10 µM single dose (Eurofins); conditions: read-out: % Binding Inhibition at 10 μM, D1
T9 construct: purchased Eurofins Panlabs Discovery Services
T9 sequence (P21728 whole entry): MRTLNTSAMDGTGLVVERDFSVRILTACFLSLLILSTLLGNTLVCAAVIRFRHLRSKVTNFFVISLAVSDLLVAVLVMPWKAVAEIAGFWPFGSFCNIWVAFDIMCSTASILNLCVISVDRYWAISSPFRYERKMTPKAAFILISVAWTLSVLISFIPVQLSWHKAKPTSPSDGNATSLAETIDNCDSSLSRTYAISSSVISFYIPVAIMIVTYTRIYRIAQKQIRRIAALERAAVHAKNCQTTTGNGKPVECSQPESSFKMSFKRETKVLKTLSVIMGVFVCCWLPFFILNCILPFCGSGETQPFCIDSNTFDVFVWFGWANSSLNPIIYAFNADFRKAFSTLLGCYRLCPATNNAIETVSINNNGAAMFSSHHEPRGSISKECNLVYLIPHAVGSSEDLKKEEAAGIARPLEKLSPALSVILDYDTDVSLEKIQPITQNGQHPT
Protocol: as §1, §4

D2L = molecular target: T10, D2L (Homo sapiens, UniProt P14416); assay: Off-target screen, 10 µM single dose (Eurofins); conditions: read-out: % Binding Inhibition at 10 μM, D2L
T10 construct: purchased Eurofins Panlabs Discovery Services
T10 sequence (P14416 whole entry): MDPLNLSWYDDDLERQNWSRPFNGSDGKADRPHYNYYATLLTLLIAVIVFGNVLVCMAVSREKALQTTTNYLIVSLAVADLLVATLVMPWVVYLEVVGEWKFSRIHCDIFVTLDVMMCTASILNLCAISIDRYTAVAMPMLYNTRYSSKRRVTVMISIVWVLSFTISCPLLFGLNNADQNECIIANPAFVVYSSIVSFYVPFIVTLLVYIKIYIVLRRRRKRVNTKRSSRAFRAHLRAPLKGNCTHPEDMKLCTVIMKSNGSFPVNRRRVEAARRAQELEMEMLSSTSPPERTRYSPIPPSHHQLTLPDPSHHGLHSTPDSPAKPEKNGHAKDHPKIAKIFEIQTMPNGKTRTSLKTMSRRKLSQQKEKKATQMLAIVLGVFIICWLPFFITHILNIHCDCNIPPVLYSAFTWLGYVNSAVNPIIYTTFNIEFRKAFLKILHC
Protocol: as §1, §4

DAT = molecular target: T11, DAT (Homo sapiens, UniProt Q01959); assay: Off-target screen, 10 µM single dose (Eurofins); conditions: read-out: % Binding Inhibition at 10 μM, DAT
T11 construct: purchased Eurofins Panlabs Discovery Services
T11 sequence (Q01959 whole entry): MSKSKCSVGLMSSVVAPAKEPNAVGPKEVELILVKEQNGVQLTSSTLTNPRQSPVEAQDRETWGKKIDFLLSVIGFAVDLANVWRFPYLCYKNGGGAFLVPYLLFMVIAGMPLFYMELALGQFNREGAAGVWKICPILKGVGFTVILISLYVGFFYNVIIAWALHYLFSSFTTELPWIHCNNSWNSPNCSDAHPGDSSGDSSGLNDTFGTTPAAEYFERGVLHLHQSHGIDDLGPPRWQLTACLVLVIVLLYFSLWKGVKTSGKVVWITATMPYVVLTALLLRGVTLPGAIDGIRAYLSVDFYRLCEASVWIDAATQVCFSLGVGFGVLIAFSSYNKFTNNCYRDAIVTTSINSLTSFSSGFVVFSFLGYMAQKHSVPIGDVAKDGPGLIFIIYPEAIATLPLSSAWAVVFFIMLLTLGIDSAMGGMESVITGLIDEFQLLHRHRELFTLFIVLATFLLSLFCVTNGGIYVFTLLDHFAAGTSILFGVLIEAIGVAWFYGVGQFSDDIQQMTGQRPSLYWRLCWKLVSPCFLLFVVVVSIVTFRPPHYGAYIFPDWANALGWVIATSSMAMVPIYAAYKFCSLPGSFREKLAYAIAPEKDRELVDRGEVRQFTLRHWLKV
Protocol: as §1, §4

M1 = molecular target: T12, M1 (Homo sapiens, UniProt P11229); assay: Off-target screen, 10 µM single dose (Eurofins); conditions: read-out: % Binding Inhibition at 10 μM, M1
T12 construct: purchased Eurofins Panlabs Discovery Services
Protocol: as §1, §4

MOP = molecular target: T13, MOP (Homo sapiens, UniProt P35372); assay: Off-target screen, 10 µM single dose (Eurofins); conditions: read-out: % Binding Inhibition at 10 μM, MOP
T13 construct: purchased Eurofins Panlabs Discovery Services
T13 sequence (P35372 whole entry): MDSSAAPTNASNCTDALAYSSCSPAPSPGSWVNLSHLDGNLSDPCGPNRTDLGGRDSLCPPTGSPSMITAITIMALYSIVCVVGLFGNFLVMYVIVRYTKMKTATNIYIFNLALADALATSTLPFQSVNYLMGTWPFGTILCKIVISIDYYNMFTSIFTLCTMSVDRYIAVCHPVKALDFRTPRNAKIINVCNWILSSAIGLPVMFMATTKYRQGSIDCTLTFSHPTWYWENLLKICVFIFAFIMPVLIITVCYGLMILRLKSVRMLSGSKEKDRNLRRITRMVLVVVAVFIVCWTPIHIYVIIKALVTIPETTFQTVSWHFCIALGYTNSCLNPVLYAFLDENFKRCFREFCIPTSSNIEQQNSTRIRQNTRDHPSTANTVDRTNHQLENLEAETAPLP
Protocol: as §1, §4

NET = molecular target: T14, NET (Homo sapiens, UniProt P23975); assay: Off-target screen, 10 µM single dose (Eurofins); conditions: read-out: % Binding Inhibition at 10 μM, NET
T14 construct: purchased Eurofins Panlabs Discovery Services
Protocol: as §1, §4

SERT = molecular target: T15, SERT (Homo sapiens, UniProt P31645); assay: Off-target screen, 10 µM single dose (Eurofins); conditions: read-out: % Binding Inhibition at 10 μM, SERT
T15 construct: purchased Eurofins Panlabs Discovery Services
Protocol: as §1, §4

nAChR (α4/β2) = molecular target: T16, nAChR (α4/β2) (Homo sapiens, UniProt P17787+P43681); assay: Off-target screen, 10 µM single dose (Eurofins); conditions: read-out: % Binding Inhibition at 10 μM, nAChR (α4/β2)
T16 construct: purchased Eurofins Panlabs Discovery Services
T16 sequence (P43681 29-627 limits assumed): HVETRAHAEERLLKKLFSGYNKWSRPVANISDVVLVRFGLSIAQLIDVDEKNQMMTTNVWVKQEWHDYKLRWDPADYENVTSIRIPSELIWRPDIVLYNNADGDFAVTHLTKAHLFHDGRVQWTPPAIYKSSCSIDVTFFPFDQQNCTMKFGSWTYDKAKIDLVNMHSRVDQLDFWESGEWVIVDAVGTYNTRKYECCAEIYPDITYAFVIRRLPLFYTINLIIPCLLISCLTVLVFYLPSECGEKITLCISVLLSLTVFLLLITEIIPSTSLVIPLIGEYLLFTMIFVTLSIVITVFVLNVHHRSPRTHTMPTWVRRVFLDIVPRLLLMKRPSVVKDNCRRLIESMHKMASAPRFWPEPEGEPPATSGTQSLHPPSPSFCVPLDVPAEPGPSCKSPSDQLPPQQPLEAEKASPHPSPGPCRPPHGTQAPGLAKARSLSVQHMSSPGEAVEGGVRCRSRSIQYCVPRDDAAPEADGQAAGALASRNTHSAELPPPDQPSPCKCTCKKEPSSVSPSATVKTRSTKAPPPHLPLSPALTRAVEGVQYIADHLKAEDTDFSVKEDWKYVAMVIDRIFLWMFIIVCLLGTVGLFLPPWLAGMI
T16 sequence (P17787 26-502): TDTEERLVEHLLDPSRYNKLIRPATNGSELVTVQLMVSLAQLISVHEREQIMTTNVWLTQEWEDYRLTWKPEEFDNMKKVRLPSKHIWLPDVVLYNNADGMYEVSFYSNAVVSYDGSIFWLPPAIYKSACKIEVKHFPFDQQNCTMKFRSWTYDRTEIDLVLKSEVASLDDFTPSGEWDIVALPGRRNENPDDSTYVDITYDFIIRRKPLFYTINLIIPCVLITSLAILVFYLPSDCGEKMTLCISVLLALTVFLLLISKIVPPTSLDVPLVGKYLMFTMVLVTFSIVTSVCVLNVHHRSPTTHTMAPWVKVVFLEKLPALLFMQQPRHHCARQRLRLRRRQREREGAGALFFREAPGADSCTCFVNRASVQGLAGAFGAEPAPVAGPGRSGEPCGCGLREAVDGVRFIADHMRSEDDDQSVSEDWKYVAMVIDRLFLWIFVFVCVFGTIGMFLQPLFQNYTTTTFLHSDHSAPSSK
Protocol: as §1, §4

β2 Adrenergic receptor = molecular target: T17, β2 Adrenergic receptor (Homo sapiens, UniProt P07550); assay: Off-target screen, 10 µM single dose (Eurofins); conditions: read-out: % Binding Inhibition at 10 μM, β2 Adrenergic receptor
T17 construct: purchased Eurofins Panlabs Discovery Services
T17 sequence (P07550 whole entry): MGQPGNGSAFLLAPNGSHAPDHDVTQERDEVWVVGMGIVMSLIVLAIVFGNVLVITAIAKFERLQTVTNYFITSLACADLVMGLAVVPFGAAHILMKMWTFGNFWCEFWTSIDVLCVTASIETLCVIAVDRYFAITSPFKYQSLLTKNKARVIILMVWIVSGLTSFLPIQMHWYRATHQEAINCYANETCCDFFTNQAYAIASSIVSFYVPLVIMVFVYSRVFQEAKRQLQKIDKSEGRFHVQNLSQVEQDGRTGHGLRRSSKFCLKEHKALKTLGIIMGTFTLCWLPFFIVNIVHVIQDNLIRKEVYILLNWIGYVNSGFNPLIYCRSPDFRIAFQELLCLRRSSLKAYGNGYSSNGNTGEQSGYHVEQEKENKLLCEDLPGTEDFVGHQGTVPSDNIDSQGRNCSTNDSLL
Protocol: as §1, §4

MAO-B = molecular target: T18, MAO-B (Homo sapiens, UniProt P27338); assay: Off-target screen, 10 µM single dose (Eurofins), enzymatic functional readout; format: biochemical; conditions: n = 2, read-out: % Binding Inhibition at 10 μM, MAO-B
T18 construct: purchased Eurofins Panlabs Discovery Services
Protocol: as §1, with “Results are presented as mean ± standard error of the mean (SEM) from at least three independent experiments.” left out, “Single-dose (10 µM) off-target in vitro screening was performed in duplicate by Eurofins Panlabs Discovery Services (Supplementary Table 5).” left out
as §3

A147T TSPO = tested on: A147T TSPO; set-up: method as in PMID 30900397; conditions: cited from earlier work

T1 sequence (P30536 whole entry T147A): as the sequence (P30536 whole entry T147A) above

Structure (SMILES): COc1ccc(-c2nn3c(C)cc(C)nc3c2CC(=O)N(C)c2ccccc2)cc1 [DPA-813]
- Ki (WT human TSPO [1]): 6.2 ± 1.9 nM
- increase in affinity to WT TSPO versus parent compound (WT human TSPO [2]): ~ 3 fold
- increase in affinity to A147T TSPO versus parent compound (A147T human TSPO): ~ 32 fold
- Ki (A147T human TSPO): 3.1 ± 0.9 nM
- binding affinity to rat TSPO (rat TSPO): subnanomolar
- chromatographic logD [3]: 3.6
- % Binding Inhibition at 10 μM, Central Benzodiazepine Receptor [4]: 51%
- inhibition at 10 µM (5-HT2A): 1%
- inhibition at 10 µM (5-HT2B): 25%
- inhibition at 10 µM (CB1): 4%
- inhibition at 10 µM (CB2): -16%
- inhibition at 10 µM (D1): 13%
- inhibition at 10 µM (D2L): 10%
- inhibition at 10 µM (DAT): 10%
- inhibition at 10 µM (M1): -13%
- inhibition at 10 µM (MOP): 15%
- inhibition at 10 µM (NET): 3%
- inhibition at 10 µM (SERT): 4%
- inhibition at 10 µM (nAChR (α4/β2)): 4%
- inhibition at 10 µM (β2 Adrenergic receptor): -1%
- inhibition at 10 µM (MAO-B): 10%

Structure (SMILES): Cc1cc(C)n2nc(-c3ccc(OCCF)cc3)c(CC(=O)N(C)c3ccccc3)c2n1 [DPA-814]
- Ki (WT human TSPO [1]): 7.3 ± 0.5 nM
- increase in affinity to WT TSPO versus parent compound (WT human TSPO [2]): 3 fold
- increase in affinity to A147T TSPO versus parent compound (A147T human TSPO): 46 fold
- Ki (A147T human TSPO): 5.7 ± 1.8 nM
- binding affinity to rat TSPO (rat TSPO): subnanomolar
- chromatographic logD [3]: 3.7
- % Binding Inhibition at 10 μM, Central Benzodiazepine Receptor [4]: 18%
- inhibition at 10 µM (5-HT2A): 4%
- inhibition at 10 µM (5-HT2B): 30%
- inhibition at 10 µM (CB1): -6%
- inhibition at 10 µM (CB2): -22%
- inhibition at 10 µM (D1): 24%
- inhibition at 10 µM (D2L): 11%
- inhibition at 10 µM (DAT): 7%
- inhibition at 10 µM (M1): -14%
- inhibition at 10 µM (MOP): 24%
- inhibition at 10 µM (NET): 4%
- inhibition at 10 µM (SERT): 2%
- inhibition at 10 µM (nAChR (α4/β2)): 1%
- inhibition at 10 µM (β2 Adrenergic receptor): 0%
- inhibition at 10 µM (MAO-B): 47%

Structure (SMILES): CCN(CC)C(=O)[C@H]1CCCc2c1c1c(OC)cccc1n2CC[18F] [[^18F]GE180]
- reduction in affinity for A147T TSPO in vitro (A147T TSPO): 5 fold
